Like-named read-outs stand apart in the source and are kept apart here. Bounds are passed on as bounds.

One experiment concerns BT474-J4. In words: Cell growth inhibition assay (Cell Titer Glo), BT474-J4. It counts as cell-based, Human. To be noted: for IC50: Homo sapiens, 72 h, BT474-J4 (resistant to Compound A and trastuzumab), PIK3CA K111N, 3 days, single agent. How it is done: (§1) Human tumor cell lines from breast, BT474, BT474-J4, JIMT-1, MDA-MB-361, SK-BR-3, HCC1419, UACC893 and HCC202 in RPMI 1640 containing 10% FBS media; SK-BR-3-W13 and BT474-J4 in RPMI 1640 containing 10% FBS and 1 μM Compound A (in this assay, Compound A, was used in the form of the ditosylate monohydrate salt) media were kept in a humidified incubator at 37° C. in 95% air and 5% CO2 JIMT-1 is a line derived from a patient clinically resistant to trastuzumab (Herceptin®). SK-BR-3-W13 is a single cell clone isolated by a cloning cylinder after a single treatment of SK-BR-3 cells with 0.5 μM Compound A. BT474-J4 is a single cell clone derived from BT474 cells that were selected to grow in Compound A to a concentration of 3 μM.
(§2) All cells were cultured without Compound A for a minimum of 72 hours prior to cell plating. Cells were assayed in a 96-well tissue culture plate (NUNC 136102) of RPMI containing 10% FBS at 2,000 cells/well. Approximately 24 hours after plating, cells were exposed to ten, two-fold or three-fold serial dilutions of Compound A or the combination of the two agents at a constant molar to molar ratio of 10:1 Compound A to Compound B (in this assay, Compound B refers to N-{(1S)-2-amino-1-[(3,4-difluorophenyl)methyl]ethyl}-5-chloro-4-(4-chloro-1-methyl-1H-pyrazol-5-yl)-2-furancarboxamide and was used as the free or unsalted compound) in RPMI media containing 10% FBS. Cells were incubated in the presence of compounds for 3 days. ATP levels were determined by adding Cell Titer Glo® (Promega) according to the manufacturer's protocol. Briefly, Cell Titer Glo® was added each plate, incubated for 20 minutes then luminescent signal was read on the SpectraMax L plate reader with a 0.5 sec integration time.
Inhibition of cell growth was estimated after treatment with Compound A or the combination of Compound A and Compound B for three days and comparing the signal to cells treated with vehicle (DMSO). Cell growth was calculated relative to vehicle (DMSO) treated control wells. […]

In another experiment the test system is MDA-MB-361. The experiment can be described thus: Cell growth inhibition assay (Cell Titer Glo), MDA-MB-361. It counts as cell-based, Human. Conditions: for IC50: Homo sapiens, 72 h, MDA-MB-361, PIK3CA E545K, 3 days, single agent; for sensitivity of the line to single agent: MDA-MB-361, E545K PIK3CA mutation. How it is done: as §1, §2
(§3) Inhibition of cell growth was estimated after treatment with Compound A or the combination of Compound A and Compound B for three days and comparing the signal to cells treated with vehicle (DMSO). Cell growth was calculated relative to vehicle (DMSO) treated control wells. Concentration of compound that inhibits 50% of control cell growth (IC50) was interpolated using nonlinear regression with the equation, y=(A+(B−A)/(1+(C/x)̂D)))), where A is the minimum response (ymin), B is the maximum response (ymax), C is the inflection point of the curve (EC50) and D is the Hill coefficient. […]
(§4) In general, a CI value <0.9, between 0.9 and 1.1, or >1.1 indicates synergy, additivity and antagonism, respectively. In general, the smaller the CI number, the greater is the strength of synergy. […]
For orientation: ATP-based viability assays read luminescence as a measure of living cells.

The subject of the next experiment is HCC1419. In words: Cell growth inhibition assay (Cell Titer Glo), HCC1419. It counts as cell-based. Conditions: Homo sapiens. How it is done:
as §1, §2, §3, §4

The test system of a further experiment is BT474. The experiment can be described thus: Cell growth inhibition assay (Cell Titer Glo), BT474. It counts as cell-based. Conditions: Homo sapiens. How it is done: as §1, §2, §3, §4
The test system of a further experiment is UACC893. In words: Cell growth inhibition assay (Cell Titer Glo), UACC893. It counts as cell-based, Human. Conditions: for IC50: Homo sapiens, UACC-893, 72 h, UACC893, PIK3CA H1047R, 3 days, single agent; for sensitivity of the line to single agent: UACC893, H1047R PIK3CA mutation. How it is done:
as §1, §2, §3, §4

The next experiment relates to HCC202. In words: Cell growth inhibition assay (Cell Titer Glo), HCC202. It counts as cell-based, Human. To be noted: for sensitivity of the line to single agent: HCC202, E545K PIK3CA mutation; for IC50: Homo sapiens, 72 h, HCC202, PIK3CA E545K, 3 days, single agent. How it is done:
as §1, §2, §3, §4

In a further experiment the test system is KPL4. The experiment can be described thus: Cell growth inhibition assay (Cell Titer Glo), KPL4. It counts as cell-based, Human. To be noted: for IC50: Homo sapiens, 72 h, KPL4, PIK3CA H1047R, 3 days, single agent; for sensitivity of the line to single agent: KPL-4, H1047R PIK3CA mutation.
The next experiment relates to SK-BR-3. In words: Cell growth inhibition assay (Cell Titer Glo), SK-BR-3. Conditions: Homo sapiens. It counts as cell-based. How it is done: as §1, §2, §3, §4
In another experiment the test system is SK-BR3-W13. The experiment can be described thus: Cell growth inhibition assay (Cell Titer Glo), SK-BR3-W13. To be noted: Homo sapiens. It counts as cell-based. How it is done:
as §1, §2, §3, §4

For a further experiment, the system named is JIMT1. The experiment can be described thus: Cell growth inhibition assay (Cell Titer Glo), JIMT1. To be noted: Homo sapiens. It counts as cell-based. How it is done:
as §1, §2, §3, §4

[1] abbreviates: 72 h, HCC1419, PIK3CA WT, 3 days, single agent, read-out: Single agent (IC50, μm).
Where [2] appears, read: HCC1419, single agent, bound stated, read-out: IC50.
Setting [3] is: BT-474, 72 h, BT474, PIK3CA K111N, 3 days, single agent, read-out: Single agent (IC50, μm).
Setting [4] is: BT-474, BT474, single agent, bound stated, read-out: IC50.
The mark [5] stands for this setting: 72 h, SK-BR-3, PIK3CA WT, 3 days, single agent, read-out: Single agent (IC50, μm).
Setting [6] is: SK-BR-3, single agent, bound stated, read-out: IC50.
Setting [7] is: 72 h, SK-BR3-W13 (resistant to Compound A and trastuzumab), 3 days, single agent, read-out: Single agent (IC50, μm).
Where [8] appears, read: SK-BR-3-W13, single agent, bound stated, read-out: IC50.
[9] abbreviates: JIMT-1, 72 h, JIMT1 (resistant to Compound A and trastuzumab), PIK3CA C420R, 3 days, single agent, read-out: Single agent (IC50, μm).
Setting [10] is: JIMT-1, JIMT1, single agent, bound stated, read-out: IC50.

The term IC50 denotes the concentration needed to halve the response being measured. Take `Cn1ncc(Cl)c1-c1cc(C(=O)N[C@H](CN)Cc2ccc(F)c(F)c2)oc1Cl` [Compound B, N-{(1S)-2-amino-1-[(3,4-difluorophenyl)methyl]ethyl}-5-chloro-4-(4-chloro-1-methyl-1H-pyrazol-5-yl)-2-furancarboxamide]: the “sensitivity of the line to cell growth inhibition” value with BT474-J4 (BT474-J4, single agent) is on record as “sensitive”. Further, the IC50 was 142 ± 47 nM in the experiment with BT474-J4; 151 ± 22 nM in the experiment on MDA-MB-361; 573 ± 154 nM in the experiment on HCC1419 (setting [1]); over 500 nM with HCC1419 (setting [2]); over 1000 nM in the experiment with BT474 (setting [3]); over 500 nM in the experiment on BT474 (setting [4]). In addition, the IC50 in the experiment with UACC893 is 30 ± 27 nM; in the experiment with HCC202 it was 919 ± 356 nM; in the experiment with KPL4, 19 ± 4 nM; in the experiment on SK-BR-3 (setting [5]), over 1000 nM; with SK-BR-3 (setting [6]) it was over 500 nM; with SK-BR3-W13 (setting [7]) it was over 1000 nM. The half-inhibitory concentration (IC50) in the experiment with SK-BR3-W13 (setting [8]), in the experiment on JIMT1 (setting [9]) and in the experiment with JIMT1 (setting [10]) was over 1000 nM each time. Also, the “sensitivity of the line to single agent” value was “less sensitive” in the experiment on MDA-MB-361, “sensitive” in the experiment on UACC893, “less sensitive” in the experiment on HCC202 and “sensitive” with KPL4.

As for `CS(=O)(=O)CCNCc1ccc(-c2ccc3ncnc(Nc4ccc(OCc5cccc(F)c5)c(Cl)c4)c3c2)o1` [Compound A, N-{3-Chloro-4-[(3-fluorobenzyl)oxy]phenyl}-6-[5-({[2-(methanesulphonyl)ethyl]amino}methyl)-2-furyl]-4-quinazolinamine, reference compound], the IC50 in the experiment on BT474-J4 is 5180 ± 2200 nM; in the experiment with MDA-MB-361 it was over 10000 nM; in the experiment with HCC1419 (setting [1]), 84 ± 34 nM; in the experiment with HCC1419 (setting [2]) it was under 200 nM; in the experiment with BT474 (setting [3]) it was 171 ± 34 nM; in the experiment with BT474 (setting [4]), under 200 nM. For the same compound, the IC50 was 492 ± 498 nM in the experiment on UACC893; 2408 ± 22 nM in the experiment with HCC202; 430 ± 159 nM in the experiment on KPL4; 196 ± 70 nM in the experiment with SK-BR-3 (setting [5]); under 200 nM in the experiment on SK-BR-3 (setting [6]); 5600 ± 1050 nM in the experiment on SK-BR3-W13 (setting [7]). In addition, the values for the IC50 in the experiment with SK-BR3-W13 (setting [8]), in the experiment with JIMT1 (setting [9]) and in the experiment with JIMT1 (setting [10]) were over 5000 nM, 7780 ± 1270 nM and over 5000 nM, respectively. For the same compound, the “sensitivity of the line to single agent” value with MDA-MB-361 was “less sensitive”; in the experiment on UACC893, “sensitive”; in the experiment with HCC202, “less sensitive”; in the experiment on KPL4, “sensitive”.

Values taken from patent US20150272952A1, “Combination” (GLAXOSMITHKLINE LLC, priority 2012, published 2015).
